Test results reported in patent US7655420B2, “Methods to increase or decrease bone density” (Celltech R & D, Inc., priority 2002, dated 2010).
“Also recorded” adds a separate entry of the source. One block for each molecule: values may come before it.

Key:
SOST expression [1] = assay: SOST expression in hMSC cells and primary human osteoblasts treated with growth factors and hormones (RT-PCR); assay type: cell-based; settings: 72 hrs; for SOST expression, factor alone: hMSC cells (and primary human osteoblasts), RT-PCR; for SOST expression, steroid added in combination with BMP-4 versus BMP-4 alone: hMSC cells, vit D 10^−7M, RA 10^−6M, DEX 10^−7M
Procedure: (§1) As immature osteoblasts differentiate and become capable of mineralization, they express markers associated with the osteoblast phenotype (type I collagen and parathyroid hormone receptor (PTHr)). These markers were used to ascertain whether differentiation had occurred so that the influence of growth factors and hormones could be correlated with the stage differentiation as well as the level of SOST expression.
(§2) Human mesenchymal cells and primary human osteoblasts were plated in regular growth media containing 2% FCS at a density of 10,000 cells 1 cm^2. Test reagents (10^−7 M dexamethasone, 10^−6 M retinoic acid, 10 ng/ml TGF-β1, PTH (10^−8 M), 10 or 50 ng/ml IGF-1, 10^−7 M1,25-dihydroxyvitamin D3, and 50 to 300 ng/ml of bone morphogenetic proteins 2, 4 or 6) were added singly or in combination on the following day.

gremlin expression = gremlin expression in hMSC cells treated with BMPs and steroids (RT-PCR); assay type: cell-based, human; settings: 72 hrs; for BMP-4 induced gremlin expression, steroid added with BMP-4: BMP-4 100 ng/ml; for gremlin expression, factor alone: RT-PCR
Procedure: as §1, §2

noggin expression = noggin expression in hMSC cells treated with BMPs and steroids (RT-PCR); assay type: cell-based, human; settings: 72 hrs
Procedure: as §1, §2

PTHr expression = PTHr expression in hMSC cells treated with factors (RT-PCR); assay type: cell-based, human; settings: 72 hrs, IGF-1 at 50 ng/ml, DEX 10^−7M
Source text: as §1, with “In this example, the effect of growth factors and hormones on SOST expression in hMSC cells or primary human osteoblasts was observed using RT-PCR. […] As” for “As”
as §2, with “day. Cultures were continued for 24 to 120 hrs after which the cells were harvested for RNA isolation.” for “day.”

SOST expression [2] = assay: BMP-6 induction of SOST expression in hMSC cells with test compounds (RT-PCR); assay type: cell-based, human; settings: for Results (effect on BMP-6 induction of SOST expression): BMP-6, 72 hrs, compound at 1 × 10^−7 M
Procedure: The previous example illustrates that SOST expression was enhanced by bone morphogenetic proteins and modulated by steroids such as dexamethasone. In this example, human MSC cells were incubated with bone morphogenetic proteins in the presence of various test agents to determine whether other steroids and compounds could affect the BMP-induction of SOST. SOST expression was monitored by reverse transcriptase polymerase chain reaction (RT-PCR).
Human mesenchymal cells (hMSCs) were plated in regular growth media containing 2% FCS and treated with BMP-6 either alone or in combination with the test compounds. The cells were harvested 72 hrs later and RNA was prepared for RT-PCR analysis of SOST expression.

[3] = tested on: caspase activity in hMSC cells; assay: apoptosis of hMSC cells by caspase activity (Homogeneous Caspase ELISA); assay type: cell-based, human; settings: hMSC in osteoblast-inducing media, 20 μg/ml sclerostin or other protein, 24 hours
Procedure: Human mesenchymal (hMSC) cells were plated in Osteoblast-inducing media (Biowhittaker's MSCGM medium supplemented with 100 nM dexamethasone, 50 μg/ml ascorbic acid, and 10 mM β-glycerophosphate) at a density of 10,000 cells/cm^2 in 96-well dishes.
For apoptosis assays, cells were treated with sclerostin or commercially available preparations of the BMP antagonists noggin, chordin, gremlin or twisted gastrulation (Tsg) for 24 hours prior to assay for caspase activity. In some experiments, cells were treated for various times with a partially purified preparation of baculovirus-expressed human sclerostin (0 to 30 μg/ml) or an equal volume of a protein preparation purified from Sf9 conditioned media (control) in the absence or presence of Calbiochem's caspase inhibitors. Cells were harvested and processed for apoptosis assays using the Homogeneous Caspase ELISA (Roche) or Cell Death (Histone-Associated DNA Fragmentation, Roche).

[4] = tested on: BMP-6 stimulated alkaline phosphatase activity; assay: BMP-6 stimulated alkaline phosphatase activity in mouse mesenchymal C3H10T1/2 cells; assay type: cell-based
Procedure: C3H10T1/2 cells (ATCC Deposit No. CCL-226) were plated in 96-well dishes at a density of 25,000 cells per well in complete growth medium (DMEM with high glucose and glutamine supplemented with 10% FCS, 1% penicillin/streptomycin, 0.1 mM non-essential amino acids, 1 mM sodium pyruvate, 55 μM β-mercaptoethanol, and 20 mM HEPES, pH 7.3). C3H10T1/2 cells were used in a short-term (72 hr) assay to determine the effects of human sclerostin protein on BMP-induced ALP activity. Partially purified preparations of bacculovirus-expressed sclerostin protein were prepared in sterile PBS using NAP-5 columns prior to use. Sclerostin protein (0 to 50 μg/ml) or an equal volume of Sf9 conditioned media (control) was pre-incubated with 500 ng/ml BMP-6 for 1 hr prior to addition to cells. For comparison, similar incubations were carried out with anti-BMP-6 antibody and noggin. Cells were harvested 72 hrs later for determination of ALP activity.
To test the specificity of the sclerostin effect, human sclerostin that was synthesized with a FLAG tag, was pre-incubated for 2 hrs at 4° C. with an anti-FLAG antibody coupled to agarose beads. The mixture was then spun down at 10,000×g for 15 minutes at 4° C. and the supernatant treated as “sclerostin protein” in the above assay.

[5] = tested on: alkaline phosphatase (ALP) activity in hMSC cells; assay: alkaline phosphatase activity in differentiating hMSC cells; assay type: cell-based, human; settings: hMSC cells, Osteoblast-Inducing media, 7 days
Procedure: hMSC cells were plated in 96-well tissue culture dishes at a density of 10,000 cells/cm^2 in Osteoblast-Inducing medium. Partially purified preparations of baculovirus-expressed sclerostin protein were prepared in sterile PBS using NAP-5 columns prior to use. Human sclerostin protein (0 to 30 μg/ml) or an equal volume of Sf9 conditioned media (Control) was added to cultures of hMSC cells at various times after plating (1 day, 8 days, 15 days, or 21 days). The effects of sclerostin on osteoblastic differentiation were assessed by measuring alkaline phosphatase activity (ALP, determined in cell layers using DEAA buffer (Pierce) containing 0.5% NP-40 and 10 mM p-nitrophenylphosphate), synthesis of collagen type I (Prolagen C ELISA), and calcium deposition for mineralization (colorimetric assay of acid lysates of cell layers, Sigma).

[6] = tested on: alkaline phosphatase (ALP) activity in hMSC cells; assay: as above; assay type: cell-based, human; settings: sclerostin 10 μg/ml and increasing amounts of BMP-6

Molecule: CC1=C(/C=C/C(C)=C/C=C/C(C)=C/C(=O)O)C(C)(C)CCC1 [retinoic acid, reference compound]
SOST expression, factor alone (SOST expression [1]): no effect

Molecule: C=C1/C(=C\C=C2/CCC[C@]3(C)[C@@H]([C@H](C)CCCC(C)(C)O)CC[C@@H]23)C[C@@H](O)C[C@@H]1O [vitamin D, 1,25-dihydroxyvitamin D3, reference compound]
BMP-4 induced gremlin expression, steroid added with BMP-4 (gremlin expression): did not alter | gremlin expression, factor alone (gremlin expression): unchanged | SOST expression, factor alone (SOST expression [1]): no effect | SOST expression, steroid added in combination with BMP-4 versus BMP-4 alone (SOST expression [1]): enhanced | noggin expression, factor alone (noggin expression): increase

Molecule: IGF-1: insulin-like growth factor-1
SOST expression, factor alone (SOST expression [1]): enhanced | PTHr expression (PTHr expression): induced

Molecule: TGF-β: transforming growth factor-β
SOST expression, factor alone (SOST expression [1]): no effect

Molecule: C[C@@H]1C[C@H]2[C@@H]3CCC4=CC(=O)C=C[C@]4(C)[C@@]3(F)[C@@H](O)C[C@]2(C)[C@@]1(O)C(=O)CO [Dexamethasone, dexamethasone, reference compound]
BMP-4 induced gremlin expression, steroid added with BMP-4 (gremlin expression): diminished | gremlin expression, factor alone (gremlin expression): decreased | SOST expression, factor alone (SOST expression [1]): no effect | SOST expression, steroid added in combination with BMP-4 versus BMP-4 alone (SOST expression [1]): abolished the stimulatory effect | SOST expression, steroid added in combination with BMP-4 versus BMP-4 alone (SOST expression [1]; listed as dexamethasone): abolished the stimulatory effect; also recorded: significantly suppressed; also recorded: depressed | PTHr expression (PTHr expression): induced | noggin expression, factor alone (noggin expression): increase | induction of SOST expression by BMP-6 (BMP-induced SOST expression) (SOST expression [2]; 72 hrs, no single concentration stated in the sentence): blocks | Results (effect on BMP-6 induction of SOST expression) (SOST expression [2]): blocked; also recorded: Inhibition | Results (effect on BMP-6 induction of SOST expression) (SOST expression [2]; listed as DEX): blocked

IC50, decrease of BMP-6 stimulated alkaline phosphatase activity ([4]; pre-incubated with 500 ng/ml BMP-6 for 1 hr, 72 hrs): 0.3 µg/mL
B1: noggin: BMP antagonist protein (mouse noggin), purchased from R & D Systems (protein)
chain: QHYLHIRPAPSDNLPLVDLIEHPDPIFDPKEKDLNETLLRSLLGGHYDPGFMATSPPEDRPGGGGGPAGGAEDLAELDQLLRQRPSGAMPSEIKGLEFSEGLAQGKKQRLSKKLRRKLQMWLWSQTFCPVLYAWNDLGSRFWPRYVKVGSCFSKRSCSVPEGMVCKPSKSVHLTVLRWRCQRRGGQRCGWIPIQYPIISECKCSC
caspase activity [3]: no increase; also recorded: no significant effect | stimulatory effect of BMP-6 on alkaline phosphatase activity (antagonism) ([4]; 500 ng/ml BMP-6, 72 hrs): antagonized | ALP activity ([5]; protein at 1 μg/ml): no effect | ALP activity ([5]; protein at 5 μg/ml): significantly increased

B2: PTH: parathyroid hormone (PTH), tested at 10^−8 M (peptide, UniProt P01270 32-115, looked up)
Parathyroid hormone: SVSEIQLMHNLGKHLNSMERVEWLRKKLQDVHNFVALGAPLAPRDAGSQRPRKKEDNVLVESHEKSLGEADKADVNVLTKAKSQ
modifications: Parathyroid hormone
notes: parathyroid hormone (PTH), tested at 10^−8 M
SOST expression, factor alone (SOST expression [1]): no effect

B3: BMP-4: bone morphogenetic protein 4, purchased from R & D Systems (protein, UniProt P12644 293-408, looked up)
Bone morphogenetic protein 4: SPKHHSQRARKKNKNCRRHSLYVDFSDVGWNDWIVAPPGYQAFYCHGDCPFPLADHLNSTNHAIVQTLVNSVNSSIPKACCVPTELSAISMLYLDEYDKVVLKNYQEMVVEGCGCR
gremlin expression, factor alone (gremlin expression): only modestly increased; also recorded: enhanced | SOST expression, factor alone (SOST expression [1]): enhanced; also recorded: up-regulated; also recorded: significantly increased | noggin expression, factor alone (noggin expression): up-regulated; also recorded: enhanced; also recorded: increase

B4: BMP-6: bone morphogenetic protein 6, purchased from R & D Systems (protein)
chain: QQSRNRSTQSQDVARVSSASDYNSSELKTACRKHELYVSFQDLGWQDWIIAPKGYAANYCDGECSFPLNAHMNATNHAIVQTLVHLMNPEYVPKPCCAPTKLNAISVLYFDDNSNVILKKYRNMVVRACGCH
gremlin expression, factor alone (gremlin expression): only modestly increased | SOST expression, factor alone (SOST expression [1]): enhanced; also recorded: up-regulated | ALP activity, effect of BMP-6 ([4]; 72 hrs): increased in a dose-dependent manner; also recorded: stimulatory effect | noggin expression, factor alone (noggin expression): up-regulated | reversal of the inhibitory effect of sclerostin on alkaline phosphatase [6]: partially reversed
